Laboratory results taken from PubChem BioAssay (NCI).
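Five compound concentrations were applied to cells in 96-well plates for 48 hours; endpoints were derived by simple linear interpolation of the resulting dose-response curve. The concentration for full growth arrest is given as TGI.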

Assays:
Test in all cases: DTP human tumour cell line panel, 48 h
786-0 renal = system: 786-0 renal
A498 renal = system: A498 renal
A549 NSCLC = system: A549 NSCLC
ACHN renal = system: ACHN renal
CCRF-CEM leukemia = system: CCRF-CEM leukemia
COLO 205 colon = system: COLO 205 colon
DLD-1 colon = system: DLD-1 colon
DMS 114 small cell lung = system: DMS 114 small cell lung
DMS 273 small cell lung = system: DMS 273 small cell lung
EKVX NSCLC = system: EKVX NSCLC
HCC-2998 colon = system: HCC-2998 colon
HCT-116 colon = system: HCT-116 colon
HCT-15 colon = system: HCT-15 colon
HL-60(TB) leukemia = system: HL-60(TB) leukemia
HOP-62 NSCLC = system: HOP-62 NSCLC
HT29 colon = system: HT29 colon
K-562 leukemia = system: K-562 leukemia
KM20L2 colon = system: KM20L2 colon
LOX IMVI melanoma = system: LOX IMVI melanoma
M14 melanoma = system: M14 melanoma
M19-MEL melanoma = system: M19-MEL melanoma
MALME-3M melanoma = system: MALME-3M melanoma
MOLT-4 leukemia = system: MOLT-4 leukemia
NCI-H226 lung = system: NCI-H226 lung
NCI-H23 lung = system: NCI-H23 lung
NCI-H460 lung = system: NCI-H460 lung
OVCAR-3 ovarian = system: OVCAR-3 ovarian
OVCAR-4 ovarian = system: OVCAR-4 ovarian
OVCAR-8 ovarian = system: OVCAR-8 ovarian
RPMI-8226 leukemia = system: RPMI-8226 leukemia
RXF 393 renal = system: RXF 393 renal
SF-268 CNS = system: SF-268 CNS
SF-295 CNS = system: SF-295 CNS
SF-539 CNS = system: SF-539 CNS
SK-MEL-2 melanoma = system: SK-MEL-2 melanoma
SK-MEL-28 melanoma = system: SK-MEL-28 melanoma
SK-MEL-5 melanoma = system: SK-MEL-5 melanoma
SN12C renal = system: SN12C renal
SNB-19 CNS = system: SNB-19 CNS
SNB-75 CNS = system: SNB-75 CNS
SR leukemia = system: SR leukemia
SW-620 colon = system: SW-620 colon
TK-10 renal = system: TK-10 renal
U251 CNS = system: U251 CNS
UACC-257 melanoma = system: UACC-257 melanoma
UACC-62 melanoma = system: UACC-62 melanoma
UO-31 renal = system: UO-31 renal
XF 498 CNS = system: XF 498 CNS
CAKI-1 renal = system: CAKI-1 renal
HOP-18 NSCLC = system: HOP-18 NSCLC
HOP-92 NSCLC = system: HOP-92 NSCLC
IGROV1 ovarian = system: IGROV1 ovarian
KM12 colon = system: KM12 colon
LXFL 529 NSCLC = system: LXFL 529 NSCLC
NCI-H522 lung = system: NCI-H522 lung
OVCAR-5 ovarian = system: OVCAR-5 ovarian
RXF-631 renal = system: RXF-631 renal
SK-OV-3 ovarian = system: SK-OV-3 ovarian
SNB-78 CNS = system: SNB-78 CNS

O=c1cc(-c2ccccc2)c2cc3c(=O)ccoc3cc2o1
TGI (786-0 renal): > 100 µM
TGI (A498 renal): 78.7 µM
TGI (A549 NSCLC): > 100 µM
TGI (ACHN renal): > 100 µM
TGI (CCRF-CEM leukemia): > 100 µM
TGI (COLO 205 colon): > 100 µM
TGI (DLD-1 colon): > 100 µM
TGI (DMS 114 small cell lung): > 100 µM
TGI (DMS 273 small cell lung): > 100 µM
TGI (EKVX NSCLC): > 100 µM
TGI (HCC-2998 colon): > 100 µM
TGI (HCT-116 colon): > 100 µM
TGI (HCT-15 colon): > 100 µM
TGI (HL-60(TB) leukemia): > 100 µM
TGI (HOP-62 NSCLC): > 100 µM
TGI (HT29 colon): > 100 µM
TGI (K-562 leukemia): > 100 µM
TGI (KM20L2 colon): > 100 µM
TGI (LOX IMVI melanoma): > 100 µM
TGI (M14 melanoma): > 100 µM
TGI (M19-MEL melanoma): > 100 µM
TGI (MALME-3M melanoma): > 100 µM
TGI (MOLT-4 leukemia): > 100 µM
TGI (NCI-H226 lung): > 100 µM
TGI (NCI-H23 lung): > 100 µM
TGI (NCI-H460 lung): > 100 µM
TGI (OVCAR-3 ovarian): > 100 µM
TGI (OVCAR-4 ovarian): > 100 µM
TGI (OVCAR-8 ovarian): > 100 µM
TGI (RPMI-8226 leukemia): > 100 µM
TGI (RXF 393 renal): > 100 µM
TGI (SF-268 CNS): > 100 µM
TGI (SF-295 CNS): > 100 µM
TGI (SF-539 CNS): > 100 µM
TGI (SK-MEL-2 melanoma): > 100 µM
TGI (SK-MEL-28 melanoma): > 100 µM
TGI (SK-MEL-5 melanoma): > 100 µM
TGI (SN12C renal): > 100 µM
TGI (SNB-19 CNS): > 100 µM
TGI (SNB-75 CNS): 90.3 µM
TGI (SR leukemia): > 100 µM
TGI (SW-620 colon): > 100 µM
TGI (TK-10 renal): > 100 µM
TGI (U251 CNS): > 100 µM
TGI (UACC-257 melanoma): > 100 µM
TGI (UACC-62 melanoma): > 100 µM
TGI (UO-31 renal): > 100 µM
TGI (XF 498 CNS): > 100 µM

COc1ccc(NC(=O)/C(=C/c2ccc(N(CCC#N)CCC#N)cc2)NC(=O)c2cc([N+](=O)[O-])ccc2Cl)cc1
TGI (A549 NSCLC): 89.7 µM
TGI (ACHN renal): 59.5 µM
TGI (CAKI-1 renal): > 100 µM
TGI (CCRF-CEM leukemia): > 100 µM
TGI (COLO 205 colon): > 100 µM
TGI (DLD-1 colon): > 100 µM
TGI (DMS 273 small cell lung): > 100 µM
TGI (EKVX NSCLC): > 100 µM
TGI (HCC-2998 colon): > 100 µM
TGI (HCT-116 colon): > 100 µM
TGI (HCT-15 colon): > 100 µM
TGI (HOP-18 NSCLC): > 100 µM
TGI (HOP-62 NSCLC): > 100 µM
TGI (HOP-92 NSCLC): > 100 µM
TGI (IGROV1 ovarian): > 100 µM
TGI (K-562 leukemia): > 100 µM
TGI (KM12 colon): > 100 µM
TGI (KM20L2 colon): > 100 µM
TGI (LOX IMVI melanoma): > 100 µM
TGI (LXFL 529 NSCLC): > 100 µM
TGI (M14 melanoma): > 100 µM
TGI (M19-MEL melanoma): > 100 µM
TGI (MALME-3M melanoma): > 100 µM
TGI (MOLT-4 leukemia): > 100 µM
TGI (NCI-H226 lung): > 100 µM
TGI (NCI-H23 lung): > 100 µM
TGI (NCI-H522 lung): > 100 µM
TGI (OVCAR-3 ovarian): > 100 µM
TGI (OVCAR-4 ovarian): > 100 µM
TGI (OVCAR-5 ovarian): > 100 µM
TGI (OVCAR-8 ovarian): > 100 µM
TGI (RPMI-8226 leukemia): > 100 µM
TGI (RXF 393 renal): > 100 µM
TGI (RXF-631 renal): > 100 µM
TGI (SF-268 CNS): > 100 µM
TGI (SF-295 CNS): 73.2 µM
TGI (SF-539 CNS): 50.8 µM
TGI (SK-MEL-2 melanoma): > 100 µM
TGI (SK-MEL-28 melanoma): > 100 µM
TGI (SK-MEL-5 melanoma): > 100 µM
TGI (SK-OV-3 ovarian): > 100 µM
TGI (SN12C renal): > 100 µM
TGI (SNB-19 CNS): > 100 µM
TGI (SNB-78 CNS): > 100 µM
TGI (SR leukemia): > 100 µM
TGI (SW-620 colon): > 100 µM
TGI (TK-10 renal): > 100 µM
TGI (U251 CNS): > 100 µM
TGI (UACC-62 melanoma): > 100 µM
TGI (UO-31 renal): > 100 µM
TGI (XF 498 CNS): > 100 µM
